Reference: patent publication US9175011B2, “Morpholino substituted urea or carbamate derivatives as MTOR inhibitors” (CELLZOME LIMITED, priority 2011, dated 2015)

Legend:
PI3K alpha (PI3Kα) = molecular target: T1, PI3K alpha (PI3Kα) (Homo sapiens, UniProt P42336); assay: kinobeads assay, PI3K alpha; type: binding; conditions: Jurkat cell lysate, read-out: Inhibition values (IC50) PI3Ka
T1 construct: Jurkat cells were homogenized in a Potter S homogenizer in lysis buffer; endogenous in cells; host or cells: Jurkat, clone E6-1 (ATCC TIB-152) lysate
T1 sequence (P42336 whole entry): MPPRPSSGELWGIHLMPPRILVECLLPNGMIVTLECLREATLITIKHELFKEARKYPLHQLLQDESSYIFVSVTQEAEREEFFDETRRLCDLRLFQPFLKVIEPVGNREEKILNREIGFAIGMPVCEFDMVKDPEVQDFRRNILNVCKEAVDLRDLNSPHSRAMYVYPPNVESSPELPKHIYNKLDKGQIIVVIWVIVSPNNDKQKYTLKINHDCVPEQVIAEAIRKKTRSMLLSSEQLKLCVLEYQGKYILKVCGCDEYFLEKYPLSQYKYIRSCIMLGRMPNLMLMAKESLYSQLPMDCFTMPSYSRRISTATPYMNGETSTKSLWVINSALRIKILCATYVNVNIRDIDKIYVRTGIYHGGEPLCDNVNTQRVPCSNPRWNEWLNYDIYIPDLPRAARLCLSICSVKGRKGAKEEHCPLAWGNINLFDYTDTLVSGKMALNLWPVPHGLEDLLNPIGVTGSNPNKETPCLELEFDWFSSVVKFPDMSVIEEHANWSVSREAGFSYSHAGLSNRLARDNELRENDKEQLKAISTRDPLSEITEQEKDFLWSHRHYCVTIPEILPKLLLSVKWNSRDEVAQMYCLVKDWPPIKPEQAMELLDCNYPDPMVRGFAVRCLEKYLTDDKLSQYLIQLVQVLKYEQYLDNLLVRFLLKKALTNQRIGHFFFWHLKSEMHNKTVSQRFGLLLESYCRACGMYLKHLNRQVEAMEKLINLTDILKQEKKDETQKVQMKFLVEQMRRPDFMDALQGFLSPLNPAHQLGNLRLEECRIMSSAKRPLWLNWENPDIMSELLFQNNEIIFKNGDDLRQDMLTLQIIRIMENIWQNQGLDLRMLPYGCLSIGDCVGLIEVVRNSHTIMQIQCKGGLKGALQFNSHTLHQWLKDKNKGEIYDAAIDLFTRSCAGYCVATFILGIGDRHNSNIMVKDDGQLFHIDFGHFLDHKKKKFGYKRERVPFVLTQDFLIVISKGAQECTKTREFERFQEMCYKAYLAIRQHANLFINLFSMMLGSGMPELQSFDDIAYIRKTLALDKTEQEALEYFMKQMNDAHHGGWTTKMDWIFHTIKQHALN
T1 sequence (P27986 whole entry partner): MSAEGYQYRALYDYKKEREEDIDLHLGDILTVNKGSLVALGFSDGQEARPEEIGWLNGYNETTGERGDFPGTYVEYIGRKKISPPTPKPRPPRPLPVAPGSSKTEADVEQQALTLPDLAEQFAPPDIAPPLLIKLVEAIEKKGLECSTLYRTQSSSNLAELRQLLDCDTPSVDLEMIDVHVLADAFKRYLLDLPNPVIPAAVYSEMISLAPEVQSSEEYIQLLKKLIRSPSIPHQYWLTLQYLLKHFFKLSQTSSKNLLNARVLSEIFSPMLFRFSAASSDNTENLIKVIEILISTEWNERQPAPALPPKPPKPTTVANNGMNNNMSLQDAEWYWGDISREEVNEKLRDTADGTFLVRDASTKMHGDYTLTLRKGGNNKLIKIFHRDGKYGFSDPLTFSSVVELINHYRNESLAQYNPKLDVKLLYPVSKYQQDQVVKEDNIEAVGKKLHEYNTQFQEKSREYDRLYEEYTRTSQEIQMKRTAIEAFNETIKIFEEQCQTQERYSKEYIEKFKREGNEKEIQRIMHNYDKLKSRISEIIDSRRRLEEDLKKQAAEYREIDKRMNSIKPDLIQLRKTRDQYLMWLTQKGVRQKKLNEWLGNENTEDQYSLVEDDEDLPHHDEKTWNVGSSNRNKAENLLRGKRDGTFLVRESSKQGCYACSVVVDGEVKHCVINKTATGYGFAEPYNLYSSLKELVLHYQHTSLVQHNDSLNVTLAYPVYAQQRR
Method: (§1) The compounds of the present invention as described were tested in the mTOR kinobeads assay as described below. Briefly, test compounds (at various concentrations) and the affinity matrix (1:1 mixture of beads with immobilized phenylthiazole ligand 1 and beads with immobilized phenylmorpholin-chromen ligand; WO 2009/098021) were added to cell lysate aliquots and allowed to bind to the proteins in the lysate sample. After the incubation time the beads with captured proteins were separated from the lysate. Bound proteins were then eluted and the presence of mTOR, PI3K alpha (PI3Kα), PI3K beta (PI3Kb), PI3K gamma (PI3Kg), PI3K delta (PI3Kd) and DNA-dependent protein kinase (DNA-PK) was detected and quantified using a specific antibody in a dot blot procedure and the Odyssey infrared detection system. Dose response curves for individual kinases were generated and IC50 values calculated. Kinobeads assays for PI3 kinases (WO-A 2008/015013) and for kinase selectivity profiling (WO 2009/098021) have been previously described.
(§2) The affinity matrix (beads with immobilized phenylmorpholin-chromen ligand) was washed three times with 15 ml of 1×DP buffer containing 0.2% NP40 (IGEPAL® CA-630, Sigma, #13021) and then resuspended in 5.5 ml of 1×DP buffer containing 0.2% NP40 (10% beads slurry).
(§3) 5×DP buffer: 250 mM Tris-HCl pH 7.4, 25% Glycerol, 7.5 mM MgCl2, 750 mM NaCl, 5 mM Na3VO4, filter the 5×-lysis buffer through 0.22 μm filter and store in aliquots at −80° C. The 5×DP buffer is diluted to 1×DP buffer containing 1 mM DTT and 25 mM NaF.
(§4) Stock solutions of test compounds were prepared in DMSO. In a 96 well plate 30 μl solution of diluted test compounds at 5 mM in DMSO were prepared. Starting with this solution a 1:3 dilution series (9 steps) was prepared. For control experiments (no test compound) a buffer containing 2% DMSO was used. Compound PI-103 served as a positive control (Calbiochem catalogue number 528100).
(§5) Jurkat cells (ATCC catalogue number TIB-152 Jurkat, clone E6-1) were grown in 1 liter Spinner flasks (Integra Biosciences, #182101) in suspension in RPMI 1640 medium (Invitrogen, #21875-034) supplemented with 10% Fetal Bovine Serum (Invitrogen) at a density between 0.15×10^6 and 1.2×10^6 cells/ml. Cells were harvested by centrifugation, washed once with 1×PBS buffer (Invitrogen, #14190-094) and cell pellets were frozen in liquid nitrogen and subsequently stored at −80° C.
(§6) Jurkat cells were homogenized in a Potter S homogenizer in lysis buffer: 50 mM Tris-HCl, 0.8% NP40, 5% glycerol, 150 mM NaCl, 1.5 mM MgCl2, 25 mM NaF, 1 mM sodium vanadate, 1 mM DTT, pH 7.5. One complete EDTA-free tablet (protease inhibitor cocktail, Roche Diagnostics, 1873580) per 25 ml buffer was added. The material was dounced 10 times using a mechanized POTTER S, transferred to 50 ml falcon tubes, incubated for 30 minutes on ice and spun down for 10 min at 20,000 g at 4° C. (10,000 rpm in Sorvall SLA600, precooled). The supernatant was transferred to an ultracentrifuge (UZ)-polycarbonate tube (Beckmann, 355654) and spun for 1 hour at 100.000 g at 4° C. (33.500 rpm in Ti50.2, precooled). The supernatant was transferred again to a fresh 50 ml falcon tube, the protein concentration was determined by a Bradford assay (BioRad) and samples containing 50 mg of protein per aliquot were prepared. The samples were immediately used for experiments or frozen in liquid nitrogen and stored frozen at −80° C.
(§7) Jurkat cell lysate (approximately 50 mg protein per plate) was thawed in a water bath at room temperature and then kept on ice. To the thawed cell lysate 1×DP 0.8% NP40 buffer containing protease inhibitors (1 tablet for 25 ml buffer; EDTA-free protease inhibitor cocktail; Roche Diagnostics 1873580) was added in order to reach a final protein concentration of 5 mg/ml total protein. The diluted cell lysate was stored on ice. […]

PI3K delta (PI3Kd) = molecular target: T2, PI3K delta (PI3Kd) (Homo sapiens, UniProt O00329); assay: kinobeads assay, PI3K delta; type: binding; conditions: Jurkat cell lysate, read-out: Inhibition values (IC50) PI3Kd
T2 construct: Jurkat cells were homogenized in a Potter S homogenizer in lysis buffer; endogenous in cells; host or cells: Jurkat, clone E6-1 (ATCC TIB-152) lysate
T2 sequence (O00329 whole entry): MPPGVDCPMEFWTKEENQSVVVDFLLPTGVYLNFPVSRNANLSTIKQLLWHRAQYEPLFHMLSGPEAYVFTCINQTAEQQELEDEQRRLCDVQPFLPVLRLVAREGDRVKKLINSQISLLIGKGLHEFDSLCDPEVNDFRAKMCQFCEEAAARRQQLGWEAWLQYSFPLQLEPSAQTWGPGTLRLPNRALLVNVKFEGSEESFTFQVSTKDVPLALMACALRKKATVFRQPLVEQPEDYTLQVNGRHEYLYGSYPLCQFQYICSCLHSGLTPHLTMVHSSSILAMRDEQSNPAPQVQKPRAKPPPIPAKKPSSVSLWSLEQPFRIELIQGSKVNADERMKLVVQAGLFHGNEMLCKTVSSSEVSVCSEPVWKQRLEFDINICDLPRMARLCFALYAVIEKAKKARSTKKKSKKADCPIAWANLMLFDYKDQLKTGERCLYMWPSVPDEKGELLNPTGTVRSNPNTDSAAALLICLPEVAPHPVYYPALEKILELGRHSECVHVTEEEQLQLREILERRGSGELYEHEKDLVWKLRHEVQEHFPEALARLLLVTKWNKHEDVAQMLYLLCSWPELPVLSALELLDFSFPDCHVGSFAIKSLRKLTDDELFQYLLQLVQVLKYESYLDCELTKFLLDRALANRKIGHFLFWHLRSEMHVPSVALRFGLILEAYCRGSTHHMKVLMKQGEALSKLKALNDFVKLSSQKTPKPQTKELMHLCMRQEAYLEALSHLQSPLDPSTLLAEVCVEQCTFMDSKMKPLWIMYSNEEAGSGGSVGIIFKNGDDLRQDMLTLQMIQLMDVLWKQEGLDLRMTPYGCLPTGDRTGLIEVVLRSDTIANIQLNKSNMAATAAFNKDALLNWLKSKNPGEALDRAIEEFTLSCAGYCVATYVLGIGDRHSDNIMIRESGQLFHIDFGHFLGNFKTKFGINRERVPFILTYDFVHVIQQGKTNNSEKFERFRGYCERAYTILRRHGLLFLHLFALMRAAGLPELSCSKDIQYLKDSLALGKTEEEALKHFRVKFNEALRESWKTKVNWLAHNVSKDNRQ
T2 sequence (P27986 whole entry partner): as the sequence (P27986 whole entry partner) above
Method: as §1, §2, §3, §4, §5, §6, §7

mTOR = molecular target: T3, mTOR (Homo sapiens, UniProt P42345); assay: mTOR kinobeads assay (Jurkat cell lysate, dot blot detection); type: binding; conditions: read-out: Inhibition values (IC50) mTor
T3 construct: Jurkat cells were homogenized in a Potter S homogenizer in lysis buffer; endogenous in cells; host or cells: Jurkat, clone E6-1 (ATCC TIB-152) lysate
Method: as §1, §2, §3, §4, §5, §6, §7

PI3K gamma (PI3Kg) = molecular target: T4, PI3K gamma (PI3Kg) (Homo sapiens, UniProt P48736); assay: kinobeads assay, PI3K gamma; type: binding; conditions: Jurkat cell lysate, read-out: Inhibition values (IC50) PI3Kg
T4 construct: Jurkat cells were homogenized in a Potter S homogenizer in lysis buffer; endogenous in cells; host or cells: Jurkat, clone E6-1 (ATCC TIB-152) lysate
T4 sequence (P48736 whole entry): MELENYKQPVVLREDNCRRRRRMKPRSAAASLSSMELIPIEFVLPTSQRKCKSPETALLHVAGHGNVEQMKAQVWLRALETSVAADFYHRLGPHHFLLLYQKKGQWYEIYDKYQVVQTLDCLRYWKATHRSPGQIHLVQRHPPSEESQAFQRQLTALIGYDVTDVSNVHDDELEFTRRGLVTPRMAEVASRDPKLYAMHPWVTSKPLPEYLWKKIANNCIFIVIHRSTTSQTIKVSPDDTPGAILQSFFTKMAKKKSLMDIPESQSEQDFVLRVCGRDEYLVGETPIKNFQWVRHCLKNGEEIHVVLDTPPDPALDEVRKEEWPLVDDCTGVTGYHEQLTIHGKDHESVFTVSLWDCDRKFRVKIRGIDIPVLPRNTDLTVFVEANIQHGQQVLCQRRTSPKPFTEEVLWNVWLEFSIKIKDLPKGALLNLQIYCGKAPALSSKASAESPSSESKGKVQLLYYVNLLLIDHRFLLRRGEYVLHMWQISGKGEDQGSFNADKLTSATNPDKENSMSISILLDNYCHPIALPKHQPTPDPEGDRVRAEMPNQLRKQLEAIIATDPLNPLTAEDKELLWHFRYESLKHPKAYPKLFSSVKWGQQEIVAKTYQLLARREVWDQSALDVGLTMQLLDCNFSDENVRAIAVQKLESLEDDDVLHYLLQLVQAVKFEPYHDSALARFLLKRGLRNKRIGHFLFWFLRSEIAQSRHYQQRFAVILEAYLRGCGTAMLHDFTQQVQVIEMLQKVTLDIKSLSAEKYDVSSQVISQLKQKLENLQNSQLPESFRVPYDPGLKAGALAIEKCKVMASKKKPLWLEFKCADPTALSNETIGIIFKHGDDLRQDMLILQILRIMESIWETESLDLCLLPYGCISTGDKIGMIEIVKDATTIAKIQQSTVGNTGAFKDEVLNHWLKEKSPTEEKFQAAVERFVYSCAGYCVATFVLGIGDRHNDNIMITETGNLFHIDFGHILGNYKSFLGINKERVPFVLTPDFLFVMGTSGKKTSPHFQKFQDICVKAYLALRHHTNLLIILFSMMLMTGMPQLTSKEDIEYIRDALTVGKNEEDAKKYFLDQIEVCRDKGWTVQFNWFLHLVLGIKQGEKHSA
Method: as §1, §2, §3, §4, §5, §6, §7

PI3K beta (PI3Kb) = molecular target: T5, PI3K beta (PI3Kb) (Homo sapiens, UniProt P42338); assay: kinobeads assay, PI3K beta; type: binding; conditions: Jurkat cell lysate, read-out: Inhibition values (IC50) PI3Kb
T5 construct: Jurkat cells were homogenized in a Potter S homogenizer in lysis buffer; endogenous in cells; host or cells: Jurkat, clone E6-1 (ATCC TIB-152) lysate
T5 sequence (P42338 whole entry): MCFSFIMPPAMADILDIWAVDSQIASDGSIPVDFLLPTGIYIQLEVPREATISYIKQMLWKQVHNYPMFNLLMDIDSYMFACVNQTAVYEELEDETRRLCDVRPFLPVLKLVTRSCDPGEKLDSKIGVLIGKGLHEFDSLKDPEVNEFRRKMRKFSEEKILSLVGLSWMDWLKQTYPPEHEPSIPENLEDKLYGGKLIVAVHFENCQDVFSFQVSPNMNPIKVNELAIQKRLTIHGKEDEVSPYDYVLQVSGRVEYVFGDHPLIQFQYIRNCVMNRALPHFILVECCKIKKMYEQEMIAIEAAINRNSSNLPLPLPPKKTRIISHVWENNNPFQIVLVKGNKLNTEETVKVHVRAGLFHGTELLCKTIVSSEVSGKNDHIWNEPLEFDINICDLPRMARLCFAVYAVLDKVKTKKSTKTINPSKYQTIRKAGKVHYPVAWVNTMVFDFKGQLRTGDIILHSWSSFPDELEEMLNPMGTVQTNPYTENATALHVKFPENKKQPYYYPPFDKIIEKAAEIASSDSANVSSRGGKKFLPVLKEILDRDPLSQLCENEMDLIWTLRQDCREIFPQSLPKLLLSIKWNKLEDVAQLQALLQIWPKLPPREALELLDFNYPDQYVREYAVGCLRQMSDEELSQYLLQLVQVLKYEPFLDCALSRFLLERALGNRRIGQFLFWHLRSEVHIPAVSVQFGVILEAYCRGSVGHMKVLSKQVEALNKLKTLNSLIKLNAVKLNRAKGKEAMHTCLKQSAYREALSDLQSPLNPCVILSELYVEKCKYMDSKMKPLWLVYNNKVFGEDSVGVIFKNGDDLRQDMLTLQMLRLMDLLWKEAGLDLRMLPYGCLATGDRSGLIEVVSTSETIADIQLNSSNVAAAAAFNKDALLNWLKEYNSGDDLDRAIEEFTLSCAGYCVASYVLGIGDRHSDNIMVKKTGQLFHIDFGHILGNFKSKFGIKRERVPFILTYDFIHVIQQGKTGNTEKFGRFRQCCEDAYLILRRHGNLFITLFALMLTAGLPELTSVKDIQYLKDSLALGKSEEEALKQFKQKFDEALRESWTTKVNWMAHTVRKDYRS
T5 sequence (P27986 whole entry partner): as the sequence (P27986 whole entry partner) above
Method: as §1, §2, §3, §4, §5, §6, §7

[1] = molecular target: T6, DNA-dependent protein kinase (DNA-PK) (Homo sapiens, UniProt P78527); assay: kinobeads assay, DNA-PK; type: binding; conditions: Jurkat cell lysate, read-out: Inhibition values (IC50) DNA-PK
T6 construct: Jurkat cells were homogenized in a Potter S homogenizer in lysis buffer; endogenous in cells; host or cells: Jurkat, clone E6-1 (ATCC TIB-152) lysate
Method: as §1, §2, §3, §4, §5, §6, §7

[2] = system: S6RP serine-240/244 phosphorylation; assay: In vitro phospho-S6 cellular assay (HEK293T/17); type: cell-based; conditions: Homo sapiens; HEK293T/17 cells, 2 hours, pS6RP Ser240/244; read-out: Inhibition values (IC50) pS6
Text: Activation of mTOR signaling results in phosphorylation of several downstream targets. In cells, mTOR exists in two different protein complexes. The mTOR Complex-1 (mTORC1) phosphorylates and activates S6 Kinase 1 (S6K1) and S6 Kinase 2 (S6K2) (also known as p70S6K) which then phosphorylate S6 Ribosomal Protein (S6RP) (also known as RPS6)3. S6RP is phosphorylated on serine 235, senile 236, serine 240 and serine 244 by both pS6K1 and pS6K2. The mTOR Complex-2 (mTORC2) phosphorylates AKT on serine 473 which activates the AKT signaling pathway.
The assay measures a test compound's inhibition of S6RP serine-240/244 phosphorylation and inhibition of Akt serine-473 phosphorylation in human embryonic kidney derived HEK293T/17 cells (ATCC CRL-11268).
The HEK293T/17 cell line is maintained in DMEM media (Invitrogen catalogue number 41965-039) supplemented with 10% FCS at 37° C. in a 5% CO2 humidified incubator. Cells are seeded in 96-well plates at 40,000 cells/well (pS6RP S240/244 assay) or 80,000 cells/well (pAkt 5473 assay) in 90 μl growth media (DMEM, 2% FCS). Plates are incubated for 1 hour in a humidified incubator to allow the cells to adhere. Cells are treated with 8 concentrations of test compounds or DMSO alone for controls (final DMSO concentration 0.1%) and incubated at 37° C. for 2 hours. Then 20 μl of 5× concentrated lysis buffer (750 mM NaCl, 100 mM Tris pH7.4, 5 mM ADTA, 5 mM EGTA, 5% Triton X-100) is added, plates are sealed and incubated for 15 minutes at 4° C. with gentle shaking After cell lysis, 25 μl cell lysate is transferred to a MesoScale plate coated with an antibody to pS6RP Ser240/244 (MesoScale Discovery K150DGD-3) or an antibody to pAkt Ser 473 (MesoScale Discovery K151DGD-3). Plates have been blocked before by incubation with 150 μl MesoScale Discovery Blocking Solution-A for 1 hour at room temperature followed by washing with 150 μl 1×Tris wash buffer per well. After the transfer of the cell lysate to the MSD plate, the pS6RP (or pAkt) protein is captured on the coated antibody by incubation at room temperature for 1 hour with gentle shaking. After the capture step the plate is washed three times with 150 μl of 1× Tris wash buffer per well. Then 25 μl detection antibody conjugated with a Sulfo-Tag is added and incubated for 1 hour at room temperature with gentle shaking. Subsequently the antibody solution is removed and the plate is washed 3 times with 150 μl 1×Tris wash buffer per well and 150 μl Read buffer is added. The plates are analysed on a MSD 2400 Plate Reader (MesoScale Discovery). Data analysis is performed using nonlinear regression for a sigmoidal dose-response with a variable slope.

SMILES	IC50 (PI3K alpha (PI3Kα)) [µM]	IC50 (PI3K delta (PI3Kd)) [µM]	IC50 (mTOR) [µM]	IC50 (PI3K gamma (PI3Kg)) [µM]	IC50 (PI3K beta (PI3Kb)) [µM]	IC50 [1] [µM]	IC50 [2] [µM]
CC(C)NC(=O)Nc1ccc(-c2nc(-c3ccccc3S(C)(=O)=O)nc(N3CCOC[C@@H]3C)n2)cc1 [Example 15, (S)-1-isopropyl-3-(4-(4-(3-methylmorpholino)-6-(2-(methylsulfonyl)phenyl)-1,3,5-triazin-2-yl)phenyl)urea]	> 10	> 10	0.1 to 1	> 10	> 10	> 10	< 0.1
C[C@@H]1COCCN1c1nc(-c2ccc(NC(=O)NC3CC3)cc2)nc(-c2ccccc2S(C)(=O)=O)n1 [Example 13, (R)-1-cyclopropyl-3-(4-(4-(3-methylmorpholino)-6-(2-(methylsulfonyl)phenyl)-1,3,5-triazin-2-yl)phenyl)urea]	> 10	> 10	0.1 to 1	> 10	> 10	> 10	< 0.1
CCC1COCCN1c1nc(-c2ccc(NC(=O)NC3CC3)cc2)nc(-c2ccccc2S(C)(=O)=O)n1 (stereo not shown) [Example 36, 1-cyclopropyl-3-(4-(4-(3-ethylmorpholino)-6-(2-(methylsulfonyl)phenyl)-1,3,5-triazin-2-yl)phenyl)urea]	> 10	> 10	0.1 to 1	> 10	> 10	> 10	< 0.1
C[C@H]1COCCN1c1nc(-c2ccc(NC(=O)NC3CCOC3)cc2)nc(-c2ccccc2S(C)(=O)=O)n1 (stereo partly drawn) [Example 34, 1-(4-(4-((S)-3-methylmorpholino)-6-(2-(methylsulfonyl)phenyl)-1,3,5-triazin-2-yl)phenyl)-3-(tetrahydrofuran-3-yl)urea]	> 10	> 10	0.1 to 1	> 10	> 10	> 10	0.1 to 1
C[C@H]1COCCN1c1nc(-c2ccc(NC(=O)NC3CCCC3)cc2)nc(-c2ccccc2S(C)(=O)=O)n1 [Example 20, (S)-1-cyclopentyl-3-(4-(4-(3-methylmorpholino)-6-(2-(methylsulfonyl)phenyl)-1,3,5-triazin-2-yl)phenyl)urea]	1 to 10	> 10	0.1 to 1	> 10	1 to 10	1 to 10	< 0.1
C[C@H]1COCCN1c1nc(-c2ccc(NC(=O)Nc3ccc(CO)cc3)cc2)nc(-c2ccccc2S(C)(=O)=O)n1 [Example 25, (S)-1-(4-(hydroxymethyl)phenyl)-3-(4-(4-(3-methylmorpholino)-6-(2-(methylsulfonyl)phenyl)-1,3,5-triazin-2-yl)phenyl)urea]	> 10	> 10	0.1 to 1	> 10	> 10	> 10	< 0.1
C[C@H]1COCCN1c1nc(-c2ccc(NC(=O)NC3CC3(F)F)cc2)nc(-c2ccccc2S(C)(=O)=O)n1 (stereo partly drawn) [Example 29, 1-(2,2-difluorocyclopropyl)-3-(4-(4-((S)-3-methylmorpholino)-6-(2-(methylsulfonyl)phenyl)-1,3,5-triazin-2-yl)phenyl)urea]	> 10	> 10	0.1 to 1	> 10	> 10	> 10	< 0.1
C[C@H]1COCCN1c1nc(-c2ccc(NC(=O)NC3CCC3)cc2)nc(-c2ccccc2S(C)(=O)=O)n1 [Example 27, (S)-1-cyclobutyl-3-(4-(4-(3-methylmorpholino)-6-(2-(methylsulfonyl)phenyl)-1,3,5-triazin-2-yl)phenyl)urea]	> 10	> 10	0.1 to 1	> 10	> 10	> 10	< 0.1
CS(=O)(=O)c1ccccc1-c1nc(-c2ccc(NC(=O)NC3CC3)cc2)nc(N2C3CCC2COC3)n1 [Example 16, 1-(4-(4-(3-oxa-8-azabicyclo[3.2.1]octan-8-yl)-6-(2-(methylsulfonyl)phenyl)-1,3,5-triazin-2-yl)phenyl)-3-cyclopropylurea]	> 10	> 10	0.1 to 1	> 10	> 10	> 10	< 0.1
CS(=O)(=O)c1ccccc1-c1nc(-c2ccc(NC(=O)NC3CC3)cc2)nc(N2CCOCC2)n1 [Example 12, 1-cyclopropyl-3-(4-(4-(2-(methylsulfonyl)phenyl)-6-morpholino-1,3,5-triazin-2-yl)phenyl)urea]	> 10	> 10	0.1 to 1	> 10	> 10	> 10	0.1 to 1
